These results are taken from PubChem BioAssay (NCI).

Among the test systems are 786-0 renal; HL-60(TB) leukemia; UO-31 renal; SK-MEL-5 melanoma; SF-268 CNS; HCT-15 colon; HOP-92 NSCLC; CAKI-1 renal; SK-MEL-2 melanoma; IGROV1 ovarian.
Holding throughout (assay): growth of human tumour cells (NCI), 48 h

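Dose response: 5 concentrations. Exposure: 48 h. Format: 96-well plates. Endpoint: linear interpolation; highest concentration if not reached. Here, GI50 denotes the concentration required for 50% inhibition of growth. TGI marks complete inhibition of growth.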

For `c1ccc(SC2CCSc3ccccc3C2Sc2ccccc2)cc1` (stereo not drawn), the TGI with 786-0 renal, with HL-60(TB) leukemia, with UO-31 renal, with SK-MEL-5 melanoma, with SF-268 CNS and with HCT-15 colon was > 100 µM each time. The TGI is > 100 µM with HOP-92 NSCLC and 85 µM with CAKI-1 renal.

Take `CC(C)=CCc1cc(O)cc2c1OC(C=C(C)C)C1=C2C(=O)C2=C(NCCS2(=O)=O)C1=O` (stereo not drawn): the GI50 in the test with SK-MEL-2 melanoma is 2.85 µM; in the test on 786-0 renal, 2.93 µM; with UO-31 renal it was 2.03 µM; in the test on SK-MEL-5 melanoma it was 0.751 µM; with SF-268 CNS, 2.34 µM; in the test with IGROV1 ovarian, 2.15 µM. Moreover, the results for the GI50 in the test with HCT-15 colon and in the test on HOP-92 NSCLC were 2.74 µM and 5.73 µM, respectively. Besides, the TGI was 7.13 µM in the test with SK-MEL-2 melanoma; 7.11 µM in the test with 786-0 renal; 6.05 µM with UO-31 renal; 2.88 µM in the test with SK-MEL-5 melanoma; 8.2 µM in the test with SF-268 CNS; 5.43 µM with IGROV1 ovarian. For the same molecule, the TGI stood at 6.46 µM in the test on HCT-15 colon and 15.9 µM in the test with HOP-92 NSCLC.

Take `COC(=O)[C@]1(C)CCCC2(C)C1CC[C@H]1C=C(C)[C@H]3CCC12C3` (stereo partly drawn): the TGI with 786-0 renal, with HL-60(TB) leukemia, in the test on UO-31 renal, with SK-MEL-5 melanoma, in the test on SF-268 CNS and with IGROV1 ovarian was > 100 µM in each case. Besides, the TGI with HCT-15 colon, in the test on HOP-92 NSCLC and with CAKI-1 renal was > 100 µM throughout.

Regarding `C=CCCCCCCCCCCC1(O)C=CC2=[N+](CCCCCN=C(N)N)CCCN21` (stereo not drawn), the GI50 in the test on SK-MEL-2 melanoma was 21.3 µM; in the test on 786-0 renal, 7.47 µM; in the test with UO-31 renal it was 17 µM; in the test on SK-MEL-5 melanoma, 9.93 µM; with SF-268 CNS, 7.7 µM; in the test on IGROV1 ovarian, 10.9 µM. Also, the results for the GI50 with HCT-15 colon and with CAKI-1 renal were 4.87 µM and 3.22 µM, respectively. For the same molecule, the TGI amounted to 47.2 µM with SK-MEL-2 melanoma; 29.8 µM in the test on 786-0 renal; 36.5 µM in the test with UO-31 renal; 25.1 µM in the test on SK-MEL-5 melanoma; 26.7 µM in the test with SF-268 CNS; 30.1 µM in the test on IGROV1 ovarian. Also, the TGI with HCT-15 colon stood at 18.6 µM; in the test with HOP-92 NSCLC, 0.759 µM; in the test with CAKI-1 renal it was 14.1 µM.

For the molecule `CC1(C)OCCn2c1nc1c(N3CCOCC3)nc(-c3cnc(N)nc3)nc12`, the GI50 with SK-MEL-2 melanoma was 0.372 µM; in the test with 786-0 renal it was 0.344 µM; in the test on HL-60(TB) leukemia, 0.141 µM; with UO-31 renal it was 0.0912 µM; in the test with SK-MEL-5 melanoma, 0.346 µM; in the test on SF-268 CNS, 0.426 µM. Further, the figures for the GI50 with IGROV1 ovarian, in the test on HCT-15 colon and in the test on HOP-92 NSCLC were 0.0622 µM, 0.241 µM and 0.141 µM, respectively. The TGI in the test with SK-MEL-2 melanoma was 3.79 µM; with 786-0 renal, 5.09 µM; in the test with HL-60(TB) leukemia, > 31.3 µM; in the test with UO-31 renal it was 1.11 µM; in the test with SK-MEL-5 melanoma, 2.9 µM; in the test on SF-268 CNS, > 100 µM. Besides, the TGI in the test on IGROV1 ovarian is 0.432 µM; in the test on HCT-15 colon, > 100 µM; in the test with HOP-92 NSCLC it was 1.84 µM.

In the case of `COc1ccc2oc(-c3cccnc3)cc(=O)c2c1`, the TGI with SK-MEL-2 melanoma was > 100 µM; in the test on 786-0 renal, > 100 µM; with HL-60(TB) leukemia, > 100 µM; with UO-31 renal, 69.2 µM; in the test with SF-268 CNS it was > 100 µM; with IGROV1 ovarian it was > 100 µM. In addition, the TGI in the test with HOP-92 NSCLC and with CAKI-1 renal was > 100 µM in each case.

As to `Nc1c(C(=O)Nc2cccc(Br)c2)sc2nc3c(cc12)C(=O)CCC3`, the GI50 was 0.86 µM with 786-0 renal; 0.408 µM with HL-60(TB) leukemia; 3.07 µM in the test on UO-31 renal; 0.4 µM with SK-MEL-5 melanoma; 19.5 µM in the test with SF-268 CNS; 1.73 µM in the test with IGROV1 ovarian. The GI50 with HCT-15 colon is 0.468 µM; with HOP-92 NSCLC, 0.64 µM; with CAKI-1 renal, 0.615 µM. Moreover, the TGI in the test on 786-0 renal, with HL-60(TB) leukemia, in the test on UO-31 renal, in the test on SK-MEL-5 melanoma, with SF-268 CNS and in the test with IGROV1 ovarian was > 100 µM in each case. Moreover, the TGI in the test on HCT-15 colon was > 100 µM; in the test with HOP-92 NSCLC, 86.2 µM; with CAKI-1 renal, > 100 µM.

`COc1ccc(/C(=N\NC(=O)C(N)=O)C(c2ccc(OC)cc2)C2(O)C(=O)Nc3c(Cl)cccc32)cc1` (stereo not drawn): the TGI in the test on SK-MEL-2 melanoma, in the test with 786-0 renal, in the test on HL-60(TB) leukemia, in the test with UO-31 renal, in the test with SK-MEL-5 melanoma and with SF-268 CNS was > 100 µM in each case. In addition, the TGI with IGROV1 ovarian and in the test on HOP-92 NSCLC was > 100 µM throughout.

With `Cc1ccc(Cl)cc1Nc1nc(C(F)(F)F)ccc1C(=O)N1CCN(c2cccc(Cl)c2)CC1`, the GI50 in the test with SK-MEL-2 melanoma is > 100 µM; in the test with 786-0 renal, > 100 µM; in the test on HL-60(TB) leukemia, 94.4 µM; with UO-31 renal, 24.8 µM; in the test on SK-MEL-5 melanoma it was > 100 µM; in the test with SF-268 CNS, > 100 µM. Besides, the GI50 was 39.2 µM in the test on IGROV1 ovarian, > 100 µM in the test on HCT-15 colon and 26.4 µM in the test with CAKI-1 renal. Moreover, the TGI with SK-MEL-2 melanoma, in the test with 786-0 renal, in the test with HL-60(TB) leukemia, in the test with UO-31 renal, with SK-MEL-5 melanoma and in the test with SF-268 CNS was > 100 µM each time. The TGI in the test on IGROV1 ovarian, in the test with HCT-15 colon and in the test on CAKI-1 renal was > 100 µM throughout.

Turning to `O=C(NC(=O)c1cn(CCNCCO)c(=O)[nH]c1=O)OCc1ccccc1`, the TGI with 786-0 renal, in the test on HL-60(TB) leukemia, in the test with SK-MEL-5 melanoma, in the test with SF-268 CNS, in the test with IGROV1 ovarian and in the test on HCT-15 colon was > 100 µM in each case. Moreover, the TGI with HOP-92 NSCLC and in the test with CAKI-1 renal was > 100 µM throughout.
